The values that follow come from patent US20240382540A1, “MODULATION OF FUSOBACTERIUM VARIUM TO PREVENT BOVINE LIVER ABSCESSES AND IMPROVE CATTLE PERFORMANCE” (priority 2023, published 2024).

The subject of experiment [1] is F. varium. Kind of experiment: Rumen fluid enrichment cultures with lactate. It counts as cell-based, Fusobacterium varium. Conditions: lactate present in rumen fluid enrichment cultures. From the text:
Microbial lactate utilization is linked to several pathogenic mechanisms. […] Currently it is unknown if some or all cattle-associated F. varium strains are able to derive energy from lactate. […] Thus, it is possible that the acquisition of this or a similar mobile genetic element has provided some bovine F. varium strains with the capability of utilizing lactate as a source of energy and a means for avoiding host immunity.
This identification was based on 16S rRNA sequencing using close to the full-length gene (27F/1492R primers), a reliable method for determining bacterial species (FIG. 1).

In the next experiment the test system is F. necrophorum. Description: Antimicrobial susceptibility testing: growth of F. necrophorum strains exposed to tylosin and monensin. As to conditions: for decline/reduction in growth: F. necrophorum strain 8L1; for growth inhibition: all three F. necrophorum strains tested. The experiment is classed as cell-based, Fusobacterium necrophorum. From the text:
(§1) In an effort to understand the differential response of Fusobacterium species to antimicrobial agents commonly used in livestock, we examined the effect of tylosin and monensin on the growth of reference strains and newly isolated strains of F. varium and F. necrophorum.
(§2) To set up the experiment, we exposed three strains each of F. varium and F. necrophorum to tylosin and monensin at concentrations relevant to ruminal environments.
Strains A and 8L1 were most affected, with both displaying a 98% reduction in growth. […] In this context, growth reductions of 44-66% were observed (P<0.05).

For experiment [2], the system named is F. varium. Description: Antimicrobial susceptibility testing: growth of F. varium strains exposed to tylosin and monensin. Conditions: for growth inhibition: all tested F. varium strains. It counts as cell-based, Fusobacterium varium.
From the text: as §1, §2

Experiment [3] relates to Fusobacterium necrophorum. Conditions: grain-fed cattle; antibiotic as component of cattle feed; cited from earlier work.
Where [4] appears, read: concentrations relevant to ruminal environments.

As to `CC(O)C(=O)O` (stereo not drawn) [lactate], in the experiment with F. varium [1], the “enrichment of native F. varium strains” value is given as “up to 35,000 fold”.
Turning to `CC[C@@]1([C@@H]2O[C@@H]([C@H]3O[C@@](O)(CO)[C@H](C)C[C@@H]3C)C[C@@H]2C)CC[C@H]([C@]2(C)CC[C@]3(C[C@H](O)[C@@H](C)[C@@H]([C@@H](C)[C@@H](OC)[C@H](C)C(=O)O)O3)O2)O1` [monensin], the decline/reduction in growth in the experiment with F. necrophorum was 98%. In addition, the reduction in growth with F. necrophorum (F. necrophorum strain A) was determined as 98%. The growth reduction in the experiment on F. necrophorum (F. necrophorum, medium containing only casein pancreatic digest and yeast extract as carbon sources) is recorded as 44-66%. Besides, the growth inhibition entry in the experiment on F. necrophorum was “more than 87%”; in the experiment with F. varium [2] (setting [4]), “did not show substantial growth inhibition”. Also, the decrease in growth in the experiment on F. varium [2] (F. varium bovine isolates, concentrations relevant to ruminal environments) was 15%. For the same compound, in the experiment on F. varium [2] (reference strain F. varium NCTC 10560), the growth response entry was “no significant response”.
Take `CC[C@H]1OC(=O)C[C@@H](O)[C@H](C)[C@@H](O[C@@H]2O[C@H](C)[C@@H](O[C@H]3C[C@@](C)(O)[C@@H](O)[C@H](C)O3)[C@H](N(C)C)[C@H]2O)[C@@H](CC=O)C[C@@H](C)C(=O)/C=C/C(C)=C/[C@@H]1CO[C@@H]1O[C@H](C)[C@@H](O)[C@@H](OC)[C@H]1OC` [tylosin]: the decline/reduction in growth in the experiment with F. necrophorum amounted to 92%. Also, the decline in growth in the experiment with F. necrophorum (F. necrophorum strain FNA) is reported as 94%; in the experiment on F. varium [2] (strain F. varium DNLA-8, concentrations relevant to ruminal environments), 13%. Further, the growth inhibition entry in the experiment with F. necrophorum is given as “over 67%”; in the experiment with F. varium [2] (setting [4]), “none of the tested strains exhibited substantial growth inhibition”. Besides, in experiment [3], the “ruminal concentrations of Fusobacterium necrophorum” value was “significantly reduced”.
For the compound virginiamycin, the “ruminal concentrations of Fusobacterium necrophorum” value in experiment [3] is listed as “significantly reduced”.
